The test system of one assay is SKCaR. The assay can be described thus: FURA 2 based assay of SKCaR activation in transfected HEK cells. Type of assay: cell-based, dogfish shark (Squalus acanthias). The conditions noted are these: for effect of amino acids on SKCaR's response to Ca2+: 10 mM Phe, 10 mM Ile or AA Mixture, FURA-2; for alteration in SKCaR sensitivity to Ca2+: increasing extracellular NaCl, sucrose as osmolality control. The text has this:
SKCaR cDNA was ligated into the mammalian expression vector PCDNA II and transfected into HEK cells using standard techniques. The presence of SKCaR protein in transfected cells was verified by western blotting. Activation of SKCaR by extracellular Ca2+, Mg2+ or NaCl was quantified using a well characterized FURA 2 based assay where increases in intracellular Ca2+ produced by SKCaR activation are detected using methodology published previously by Bai, M., S. Quinn, S. Trvedi, O. Kifor, S. H. S. Pearce, M. R. Pollack, K. Krapcho, S. C. Hebert and E. M. Brown. Expression and characterization of inactivating and activating mutations in the human Ca2+-sensing receptor. J. Biol. Chem., 32:19537–19545 (1996); and expressed as % normalized intracellular calcium response to receptor activation.
Full length recombinant dogfish (Squalas acanthias) shark kidney calcium receptor (SKCaR) was expressed in human embryonic kidney cells using methods described herein. The ability of SKCaR to respond to individual amino acids as well as various mixtures was quantified using FURA-2 ratio imaging fluorescence.
Baseline extracellular Ca^2+ concentration was 0.5 mM. Aliquots of Ca^2+ were added to produce final extracellular concentrations of 2.5 mM, 5 mM, 7.5 mM, 10 mM and 20 mM Ca^2+ with changes in the fluorescence recorded. Note that increases in cell fluorescence were greater in the presence of 10 mM Phe for extracellular Ca^2+ concentrations less than 10 mM.

Assay [1] has as its system olfactory epithelium of freshwater adapted juvenile Atlantic salmon. The assay can be described thus: Extracellular electrical potentials (EEG) from olfactory nerve. Type of assay: in vivo. The conditions noted are these: for effect on olfactory epithelium response to mammalian finger rinse: 5 mM Ca2+ or 50 micromolar Gd3+; for effect on olfactory nerve response to 500 micromolar L-alanine: 5 mM Ca2+, 50 micromolar Gd3+ or 250 mM NaCl; for olfactory nerve response to stimulus: 500 micromolar L-alanine, 1 mM Ca2+, 250 mM NaCl, 50 micromolar Gd3+. From the text: Physiol. A 127:157–166 (1975), and Hubbard, P C, et al., Olfactory sensitivity to changes in environmental Ca2+ in the marine teleost Sparus Aurata, J. Exp. Biol. 203:3821–3829 (2000). After anaesthetizing the fish, it was placed in V-clamp apparatus where its gills were irrigated continuously with aerated seawater and its nasal lamellae bathed continuously by a stream of distilled water via a tube held in position in the inhalant olfactory opening. The olfactory nerves of the fish were exposed by removal of overlying bony structures. Stimuli were delivered as boluses to the olfactory epithelium via a 3 way valve where 1 cc of water containing the stimulus was rapidly injected into the tube containing a continuously stream of distilled water. […] Using this experimental approach, stable and reproducible recordings could be obtained for up to 6 hr after the initial surgery on the fish.

Assay [2] deals with T1, HuPCaR (Homo sapiens, UniProt P41180).
T1 sequence (P41180 20-1078): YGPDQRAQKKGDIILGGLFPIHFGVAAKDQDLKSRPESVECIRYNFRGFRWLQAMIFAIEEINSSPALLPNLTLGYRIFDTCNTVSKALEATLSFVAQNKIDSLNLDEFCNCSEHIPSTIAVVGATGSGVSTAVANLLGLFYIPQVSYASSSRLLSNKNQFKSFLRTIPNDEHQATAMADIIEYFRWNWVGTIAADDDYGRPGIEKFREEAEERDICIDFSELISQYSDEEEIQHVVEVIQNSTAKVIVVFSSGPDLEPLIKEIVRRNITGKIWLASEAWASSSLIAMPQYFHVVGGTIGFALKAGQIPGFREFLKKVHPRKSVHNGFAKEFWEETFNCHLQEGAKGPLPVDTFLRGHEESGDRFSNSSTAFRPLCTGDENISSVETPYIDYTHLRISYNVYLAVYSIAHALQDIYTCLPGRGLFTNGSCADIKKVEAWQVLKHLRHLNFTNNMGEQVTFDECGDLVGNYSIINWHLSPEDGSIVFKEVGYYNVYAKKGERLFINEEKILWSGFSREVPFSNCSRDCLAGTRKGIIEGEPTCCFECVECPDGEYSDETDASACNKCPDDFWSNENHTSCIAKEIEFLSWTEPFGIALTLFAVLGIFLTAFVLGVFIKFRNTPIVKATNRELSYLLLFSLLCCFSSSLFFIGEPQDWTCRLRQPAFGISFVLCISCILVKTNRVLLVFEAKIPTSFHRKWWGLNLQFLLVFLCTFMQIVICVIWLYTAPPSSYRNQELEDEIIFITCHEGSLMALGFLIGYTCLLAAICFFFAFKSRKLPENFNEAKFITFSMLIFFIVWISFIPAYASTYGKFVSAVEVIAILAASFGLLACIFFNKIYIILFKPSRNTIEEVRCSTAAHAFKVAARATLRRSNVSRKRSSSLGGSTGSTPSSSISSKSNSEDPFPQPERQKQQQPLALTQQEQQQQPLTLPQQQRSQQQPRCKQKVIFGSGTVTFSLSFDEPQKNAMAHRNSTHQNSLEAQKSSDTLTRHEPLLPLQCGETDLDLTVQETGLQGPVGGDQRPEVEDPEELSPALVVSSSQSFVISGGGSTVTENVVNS
As to conditions: HuPCaR with Arg at AA #227; read-out: EC50 Ca2+; cited from earlier work.

Assay [3] concerns the target T2, HuPCaR (Homo sapiens, UniProt P41180, R227L).
T2 sequence (P41180 20-1078 R227L): T1 sequence (P41180 20-1078) with R208L
As to conditions: HuPCaR AA #227 altered to Leu; read-out: EC50 Ca2+; cited from earlier work.

Setting [4] is: normalized to response to 10 mM Ca2+.

Structures are written as SMILES. Substitutions are numbered along the chain they refer to. pEC50: −log10 of the molar value. Where two headings read alike, the source gives them in different places. Some results are limits rather than exact numbers.

Consider 8 molecules from US7101988B2, “Polyvalent cation-sensing receptor in Atlantic salmon” (MariCal, Inc., priority 2000, dated 2006).

Take `[Ca+2]` [Ca2+, calcium]: in the assay with SKCaR (3 mM Ca2+ added, as a function of extracellular NaCl), the “effect of added Ca2+ on sensitivity of SKCaR to Mg2+” value is given as “increases the sensitivity of SKCaR to Mg2+”. Also, the pEC50 was 1.82 to 3.00 in the assay with SKCaR (depending on the extracellular concentration of NaCl, read-out: half maximal activation of SKCaR by extracellular Ca2+); > 2.30 with SKCaR (extracellular NaCl 50 mM, read-out: EC50 for Ca2+); ~1.74 with SKCaR (extracellular NaCl 550 mM, read-out: EC50 for Ca2+); 5.00 to 6.00 in assay [1] (normalized to response to 10 mM Ca2+, read-out: half maximal excitatory response (EC50)); 2.40 on HuPCaR [2]; 2.03 at HuPCaR [3]. In assay [1], the “effect on olfactory epithelium response to mammalian finger rinse” value is recorded as “reversibly ablated the response”. The “effect on olfactory nerve response to 500 micromolar L-alanine” value (“effect on olfactory nerve response” below) in assay [1] was “complete loss of the corresponding response”. Further, the “olfactory nerve response to stimulus” value in assay [1] is recorded as “produce responses in EEG activity”.

For `[Gd+3]` [Gd^3+, gadolinium], in assay [1], the “effect on olfactory epithelium response to mammalian finger rinse” value is reported as “reversibly ablated the response”, the “effect on olfactory nerve response” value was “complete loss of the corresponding response” and the “olfactory nerve response to stimulus” value is recorded as “obtained a response”. Besides, the “concentration at which olfactory epithelium responses occur” value in assay [1] (setting [4]) was in the range of 1 to 10 µM.

Turning to `CC[C@H](C)[C@H](N)C(=O)O` [Ile, L-Isoleucine], the “effect of amino acids on SKCaR's response to Ca2+” value in the assay with SKCaR was “increase SKCaR's response to a given Ca^2+ concentration”.

For the molecule `C[C@H](N)C(=O)O` [L-alanine], the “duration of olfactory nerve response” value in assay [1] (500 micromolar) was “approximately 2 seconds”. Also, the “olfactory nerve response to stimulus” value in assay [1] was “large increases in both the firing frequency and amplitude in the olfactory nerve”.

Consider `[Mg+2]` [Mg2+, magnesium], for which the “range of extracellular Mg2+ in which SKCaR is activated” value with SKCaR lay in the range of 5 to 40 mM. In addition, the pEC50 in the assay on SKCaR (extracellular NaCl 50 mM, read-out: EC50 for Mg2+) is > 1.70; in the assay with SKCaR (extracellular NaCl 550 mM, read-out: EC50 for Mg2+), ~1.10. Moreover, the “concentration at which olfactory epithelium responses occur” value in assay [1] (setting [4]) lay within 10 to 100 µM.

Turning to `[Cl-].[Na+]` [NaCl, sodium chloride], in the assay with SKCaR, the “alteration in SKCaR sensitivity to Ca2+” value is “reduce the sensitivity of SKCaR to Ca2+”. For the same molecule, in assay [1], the “effect on olfactory nerve response” value is “resulted initially in a similar response” and the “olfactory nerve response to stimulus” value is “produce responses in EEG activity”. The “concentration until which olfactory epithelium is unresponsive” value in assay [1] (in vivo) was 250 millimolar.

For `N[C@@H](Cc1ccccc1)C(=O)O` [Phe, L-Phenylalanine], in the assay on SKCaR, the “effect of amino acids on SKCaR's response to Ca2+” value is “increase SKCaR's response to a given Ca^2+ concentration”. In the assay with SKCaR (10 mM, extracellular Ca2+ less than 10 mM), the “increases in cell fluorescence” value is “greater”.

With `OC[C@H]1O[C@@](CO)(O[C@H]2O[C@H](CO)[C@@H](O)[C@H](O)[C@H]2O)[C@@H](O)[C@@H]1O` [sucrose], the “alteration in SKCaR sensitivity to Ca2+” value in the assay on SKCaR is given as “not observed”.
